For assay [1] the following is noted: mice, oral administration, versus mice not administered; cited from earlier work.
Assay [2] can be described thus: Study on evaluation of blood renal function markers in humans (placebo-controlled, randomized, double-blind, parallel-group). In kind it is in vivo. To be noted: one capsule with 20 mg L-ergothioneine per day, oral, four weeks, week 4 minus pre-testing, versus control food group. The method, then:
In order to evaluate the influence of supplements containing ergothioneine on blood renal function marker levels in humans, a placebo-controlled, randomized, double-blind, parallel-group study was conducted on subjects including male and female adults (46 subjects in a test food group; 46 subjects in a control food group; 92 subjects in total). In this study, one capsule containing 20 mg ergothioneine (test food) or one capsule not containing ergothioneine (control food) was fed per day for four weeks. Blood renal function marker levels of each subject were measured for pre-testing before starting the study (before starting ingestion of the test food or control food). After ingestion of the test food or control food for four weeks, blood renal function marker levels of each subject were measured again (testing on week 4). Renal function markers used for measurement were BUN, uric acid, and creatinine. […] For each subject, the BUN level measured at the time of pre-testing was subtracted from the BUN level measured at the time of testing on week 4 ((level measured at the time of testing on week 4)—(level measured at the time of pre-testing)) to determine Δ in level (the amount of change in BUN level) (mg/dL). […] For each subject, the uric acid level measured at the time of pre-testing was subtracted from the uric acid level measured at the time of testing on week 4 ((level measured at the time of testing on week 4)−(level measured at the time of pre-testing)) to determine Δ in level (the amount of change in uric acid level) (mg/dL). […] For each subject, the creatinine level measured at the time of pre-testing was subtracted from the creatinine level measured at the time of testing on week 4 ((level measured at the time of testing on week 4)−(level measured at the time of pre-testing)) to determine Δ in level (the amount of change in creatinine level) (mg/dL). […]

With `C[N+](C)(C)[C@@H](Cc1c[nH]c(=S)[nH]1)C(=O)[O-]` [L-ergothioneine], in assay [1], the peritesticular fat weight entry is “lower” and the “triglyceride (neutral fat) level in plasma” value was “lower”. Moreover, in assay [2], the “change in BUN level (Δ in BUN)” value is given as “reduced”, the “change in blood creatinine level (Δ in creatinine)” value was “reduced” and the “change in blood uric acid level (Δ in uric acid)” value is “reduced”.

The values are drawn from patent US20240173298A1, “COMPOSITION FOR AMELIORATING OR SUPPRESSING DECLINE OF KIDNEY FUNCTIONS” (SUNTORY HOLDINGS LIMITED, priority 2021, published 2024).
